Assay results: ChEMBL document CHEMBL3774357, “Discovery of potent and selective CDK8 inhibitors from an HSP90 pharmacophore” (Bioorg Med Chem Lett, 2016)
In brackets after ≈: the same amount, converted by molar mass.

Key:
[1] = Thermodynamic solubility of the compound; format: physicochemical; details: read-out: Therm_solubility
[2] = Volume of distribution at steady state in monkey; format: ADME, organism-based, Macaca mulatta; details: rhesus monkey, in vivo; read-out: Vdss
[3] = Oral bioavailability in mouse; format: ADME, organism-based; details: in vivo
[4] = Oral bioavailability in rat; format: ADME, organism-based; details: in vivo
[5] = Oral bioavailability in dog; format: ADME, organism-based, Canis lupus familiaris; details: in vivo
[6] = Oral bioavailability in monkey; format: ADME, organism-based, Macaca mulatta; details: rhesus monkey, in vivo
[7] = Solubility of the compound in PBS at pH 7.4; format: physicochemical
[8] = Solubility of the compound in FaSSIF at pH 6.4; format: physicochemical
[9] = Solubility of the compound in FeSSIF at pH 5.2; format: physicochemical
[10] = Volume of distribution at steady state in mouse; format: ADME, organism-based; details: in vivo, read-out: Vdss
[11] = Volume of distribution at steady state in rat; format: ADME, organism-based; details: in vivo, read-out: Vdss
[12] = Volume of distribution at steady state in dog; format: ADME, organism-based, Canis lupus familiaris; details: in vivo, read-out: Vdss

Work on `Cn1cc(-c2ccc(Cc3n[nH]c4ccc(NS(C)(=O)=O)cc34)cc2)cn1` yielded a solubility kinetic (physchem) of 153 µM (≈ 58.4 µg/mL).
With `COC1CN(C(=O)c2ccc3[nH]nc(Cc4ccc(-c5cnn(C)c5)cc4)c3c2)C1` the solubility kinetic (physchem) was 170 µM (≈ 68.2 µg/mL).
With `Cn1cc(-c2ccc(Cc3n[nH]c4ccc(S(=O)(=O)NC5CC5)cc34)cc2)cn1` the solubility kinetic (physchem) was 107 µM (≈ 43.6 µg/mL).
Work on `Cn1cc(-c2ccc(Cc3n[nH]c4ccc(N5CCOCC5)cc34)cc2)cn1` yielded a solubility kinetic (physchem) of 153 µM (≈ 57.1 µg/mL).
Molecule `Cn1cc(-c2ccc(Cc3n[nH]c4ccc(-c5nccn5C)cc34)cc2)cn1` has a solubility kinetic (physchem) of 96 µM (≈ 35.4 µg/mL).
`CNC(=O)c1ccc2[nH]nc(CC(C)C)c2c1` showed a solubility kinetic (physchem) of over 200 µM.
Molecule `Cn1cc(-c2ccc(Cc3n[nH]c4ccc(C(=O)N5CCOCC5)cc34)cc2)cn1` has a solubility kinetic (physchem) of 170 µM (≈ 68.2 µg/mL).
`CNC(=O)c1ccc2[nH]nc(Cc3ccc4cnn(C)c4c3)c2c1` gave a solubility kinetic (physchem) of 192 µM (≈ 61.3 µg/mL).
Work on `COC1CN(C(=O)c2ccc3[nH]nc(Cc4ccc5c(cnn5C)c4)c3c2)C1` yielded a solubility kinetic (physchem) of over 200 µM.
`Cn1ncc2cc(Cc3n[nH]c4ccc(C(=O)N5CC[C@H](O)C5)cc34)ccc21` showed a solubility kinetic (physchem) of over 200 µM.
For `CNC(=O)c1ccc2[nH]nc(Cc3ccc(OC)c(OC)c3)c2c1`, the solubility kinetic (physchem) was 176 µM (≈ 57.3 µg/mL).
Work on `Cn1ncc2cc(Cc3n[nH]c4ccc(C(=O)N5CCC(F)(F)C5)cc34)ccc21` yielded a solubility kinetic (physchem) of 157 µM (≈ 62.1 µg/mL).
In the case of `Cn1cc(-c2ccc(Cc3n[nH]c4ccc(C(=O)N5CC(F)(F)C5)cc34)cc2)cn1`, the solubility kinetic (physchem) is reported as 89 µM (≈ 36.3 µg/mL).
`Cn1cc(-c2ccc(Cc3n[nH]c4ccc(C(=O)N5CC[C@@H](O)C5)cc34)cc2)cn1` gave a solubility kinetic (physchem) of 181 µM (≈ 72.7 µg/mL).
`Cn1cc(-c2ccc(Cc3n[nH]c4ccc(C(=O)N5CC[C@H](O)C5)cc34)cc2)cn1` showed a solubility kinetic (physchem) of 200 µM (≈ 80.3 µg/mL).
`Cn1cc(-c2ccc(Cc3n[nH]c4ccc(C(=O)N5CCCCC5)cc34)cc2)cn1` showed a solubility kinetic (physchem) of 106 µM (≈ 42.3 µg/mL).
Molecule `Cn1cc(-c2ccc(Cc3n[nH]c4ccc(C(=O)N5CC(O)C5)cc34)cc2)cn1` has a solubility kinetic (physchem) of 196 µM (≈ 75.9 µg/mL).
In the case of `CC(=O)Nc1ccc2[nH]nc(Cc3ccc(-c4cnn(C)c4)cc3)c2c1`, the solubility kinetic (physchem) is reported as 115 µM (≈ 39.7 µg/mL).
Work on `Cn1cnc(-c2ccc3[nH]nc(Cc4ccc(-c5cnn(C)c5)cc4)c3c2)c1` yielded a solubility kinetic (physchem) of 6 µM (≈ 2.21 µg/mL).
For `CNC(=O)c1ccc2[nH]nc(Cc3ccc(-c4cnn(C)c4)cc3)c2c1`, the solubility thermodynamic [1] was 6 µg/mL (≈ 17.4 µM) and the solubility kinetic (physchem) was 169 µM (≈ 58.4 µg/mL).
For `Cn1cc(-c2ccc(Cc3n[nH]c4ccc(N5CCCC5=O)cc34)cc2)cn1`, the solubility kinetic (physchem) was 147 µM (≈ 54.6 µg/mL).
For `Cn1cc(-c2ccc(Cc3n[nH]c4ccc(C(=O)N5CCNCC5)cc34)cc2)cn1`, the solubility kinetic (physchem) was 186 µM (≈ 74.5 µg/mL).
`CNC(=O)c1ccc2[nH]nc(Cc3ccc4c(cnn4C)c3)c2c1` gave a Vd [2] of 0.95 L/kg, a bioavailability [3] of 50% and a bioavailability [4] of 88%. For the same molecule, the bioavailability [5] was 85%, the bioavailability [6] was 26% and the solubility [7] was 6 µg/mL (≈ 18.8 µM). The solubility [8] was 32 µg/mL (≈ 100 µM), the solubility [9] was 59 µg/mL (≈ 185 µM) and the solubility thermodynamic [1] was 6 µg/mL (≈ 18.8 µM). It also gave a Vd [10] of 0.69 L/kg, a Vd [11] of 0.85 L/kg and a Vd [12] of 1.8 L/kg. It also gave a solubility kinetic (physchem) of over 200 µM.
For `CC(=O)NCCNc1ccc2[nH]nc(Cc3ccc(-c4cnn(C)c4)cc3)c2c1`, the solubility kinetic (physchem) was 183 µM (≈ 71.1 µg/mL).
In the case of `Cn1cc(-c2ccc(Cc3n[nH]c4ccc(C(N)=O)cc34)cc2)cn1`, the solubility kinetic (physchem) is reported as 173 µM (≈ 57.3 µg/mL).
Molecule `Cn1cc(-c2ccc(Cc3n[nH]c4ccc(C(=O)NC5CC5)cc34)cc2)cn1` has a solubility kinetic (physchem) of 76 µM (≈ 28.2 µg/mL).
Molecule `Cn1cc(-c2ccc(Cc3n[nH]c4ccc(C(=O)N5CCC(F)(F)C5)cc34)cc2)cn1` has a solubility kinetic (physchem) of 104 µM (≈ 43.8 µg/mL).
Work on `CNC(=O)c1ccc2[nH]nc(Cc3ccc(-c4cnn(CC(C)(C)O)c4)cc3)c2c1` yielded a solubility thermodynamic [1] of 26 µg/mL (≈ 64.4 µM) and a solubility kinetic (physchem) of 182 µM (≈ 73.4 µg/mL).
`Cn1cc(-c2ccc(Cc3n[nH]c4ccc(-c5cc(N)ccn5)cc34)cc2)cn1` showed a solubility kinetic (physchem) of 53 µM (≈ 20.2 µg/mL).
With `CNC(=O)c1ccc2[nH]nc(Cc3cccc(C)c3)c2c1` the solubility kinetic (physchem) was 167 µM (≈ 46.7 µg/mL).
